Source: patent US20240254129A1, “HETEROCYCLIC COMPOUNDS AND USES THEREOF” (Kumquat Biosciences Inc., priority 2021, published 2024)
Where two headings read alike, the source gives them in different places.

Assays:
[1] = molecular target: GST-tagged K-Ras mutant / His-tagged hSOS1 (Homo sapiens, UniProt P01116); assay: HTRF assay, K-Ras mutant / SOS1 interaction; format: binding; details: read-out: IC50 against mutant Kras
Source text: (§1) This assay can be also used to assess a selective inhibition of a mutant Ras protein relative to a wildtype, or relative to a different mutant Ras protein. For example, the equilibrium interaction of wildtype Kras or K-Ras mutant (e.g., wildtype or a mutant thereof including those mentioned in Example 6) with SOS1 (e.g., hSOS1) can be assessed as a proxy or an indication for a subject compound's ability to bind and inhibit Ras protein. HTRF assay detects from (i) a fluorescence resonance energy transfer (FRET) donor (e.g., antiGST-Europium) that is bound to GST-tagged K-Ras mutant to (ii) a FRET acceptor (e.g., anti-6His-XL665) bound to a His-tagged hSOS1.
(§2) The assay buffer can contain ˜5 mM HEPES pH 7.4, ˜150 mM NaCl, ˜ 1 mM DTT, 0.05% BSA and 0.0025% (v/v) Igepal. A Ras working solution is prepared in an assay buffer containing typically a suitable amount of the protein construct (e.g., GST-tagged K-Ras mutant) and the FRET donor (e.g., antiGST-Eu(K) from Cisbio, France). A SOS1 working solution is prepared in an assay buffer containing suitable amount of the protein construct (e.g., His-hSOS1) and the FRET acceptor (e.g., anti-6His-XL665 from Cisbio, France). A suitable amount of the protein construct will depend on the range of activity or range of IC50 values being detected or under investigation. For detecting IC50 within a range of 500 nM, the protein constructs of the same range of molarity can be utilized.
(§3) A fixed volume of DMSO with or without test compound is transferred into a 384-well plate. Ras working solution is added to all wells of the test plate. SOS1 working solution is added to all wells except for those that are subsequently filled the inhibitor control solution. Upon incubation for about 10 minutes or longer, the fluorescence is measured with a M1000Pro plate reader (Tecan) using HTRF detection (excitation 337 nm, emission 1: 620 nm, emission 2: 665 nm). Compounds are tested in duplicates at different concentrations (for example, 10 μM, 2.5 μM, 0.63 μM, 0.16 μM, 0.04 µM, 0.01 μM test compound). The ratiometric data (i.e., emission 2 divided by emission 1) is used to calculate IC50 values against Ras using GraphPad Prism (GraphPad software). Following this general procedure, samples were tested with or without a subject compound disclosed herein including compounds exemplified in Table 1 to assess their abilities to inhibit K-Ras signaling or their respective IC50 values against a given Ras protein (e.g., a given mutant K-Ras) of interest.

wildtype Kras / hSOS1 = molecular target: T1, wildtype Kras / hSOS1 (Homo sapiens, UniProt P01116); assay: HTRF assay, wildtype Kras / SOS1 interaction; format: binding; details: read-out: IC50 against wildtype Kras
T1 construct: made in house; host or cells: E. coli BL21 (DE3)
Source text: as §1, §2, §3

[2] = compound nos. 102-196, general methodology of example 5

T1 sequence (P01116 1-188 isoform P01116-2): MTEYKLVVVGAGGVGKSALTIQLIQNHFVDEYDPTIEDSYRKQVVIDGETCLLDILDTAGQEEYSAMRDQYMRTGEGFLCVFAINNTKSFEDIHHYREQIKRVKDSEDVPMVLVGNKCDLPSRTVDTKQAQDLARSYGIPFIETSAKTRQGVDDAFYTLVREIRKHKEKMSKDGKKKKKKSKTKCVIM
Chain of GST-tagged K-Ras mutant / His-tagged hSOS1 (P01116 whole entry G12D, form open): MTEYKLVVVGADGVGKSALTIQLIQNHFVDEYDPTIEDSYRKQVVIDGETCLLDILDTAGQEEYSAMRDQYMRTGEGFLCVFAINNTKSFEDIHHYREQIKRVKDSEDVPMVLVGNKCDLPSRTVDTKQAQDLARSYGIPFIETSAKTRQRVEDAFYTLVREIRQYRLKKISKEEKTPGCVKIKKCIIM

IC50 [1, 2] [nM] | IC50 (wildtype Kras / hSOS1; [2]) [nM] | IC50 ([1]; compound nos. 401-703) [nM] | IC50 (wildtype Kras / hSOS1; compound nos. 401-703) [nM] | SMILES
> 500 | > 500 |  |  | CN1CCN(c2nc(OC[C@@H]3CCCN3C)nc3c(F)c(-c4cccc5sc(N)nc45)c(Cl)cc23)CC(F)(F)C1 [Compound 123, 4-(6-chloro-4-(6,6-difluoro-4-methyl-1,4-diazepan-1-yl)-8-fluoro-2-(((S)-1-methyl-pyrrolidin-2-yl)methoxy)-quinazolin-7-yl)benzo[d]-thiazol-2-amine]
 |  | < 500 | > 500 | Nc1nc2c(-c3c(F)cc4c(N5CC6CCC(C5)N6)nc(OCC56CCCN5CCC6)nc4c3F)ccc(F)c2s1 [Compound 680, 4-(4-(3,8-diazabicyclo-[3.2.1]octan-3-yl)-6,8-difluoro-2-((tetrahydro-1H-pyrrolizin-7a(5H)-yl)methoxy)quinazolin-7-yl)-7-fluorobenzo[d]thiazol-2-amine]
 |  | < 500 | > 500 | Nc1nc2c(-c3c(Cl)cc4c(N5CCCNCC5)nc(OC[C@@]56CCCN5C[C@H](F)C6)nc4c3F)ccc(F)c2s1 [Compound 621, 4-(6-chloro-4-(1,4-diazepan-1-yl)-8-fluoro-2-(((2R,7aS)-2-fluorotetrahydro-1H-pyrrolizin-7a(5H)-yl)meth-oxy)quinazolin-7-yl)-7-fluorobenzo[d]thiazol-2-amine]
 |  | > 500 | > 500 | Fc1c(Br)c(Cl)cc2c(N3CCNCC(F)(F)C3)nc(OCC34CCCN3CCC4)nc12 [Compound 599, 7-bromo-6-chloro-4-(6,6-difluoro-1,4-diazepan-1-yl)-8-fluoro-2-((tetrahydro-1H-pyrrolizin-7a(5H)-yl)meth-oxy)quinazoline]
 |  | > 500 | > 500 | Cc1nc(N2CCCCCC2)c2cc(Cl)c(-c3cccc4sc(N)nc34)cc2n1 [Compound 645, 4-(4-(azepan-1-yl)-6-chloro-2-methylquinazolin-7-yl)-benzo[d]thiazol-2-amine]
> 500 | > 500 |  |  | CN1CCc2c(cccc2Oc2nc(N3CCNCC(F)(F)C3)c3cc(Cl)c(-c4cccc5sc(N)nc45)c(F)c3n2)C1 [Compound 153, 4-(6-chloro-4-(6,6-difluoro-1,4-diazepan-1-yl)-8-fluoro-2-((2-methyl-1,2,3,4-tetra-hydroisoquinolin-5-yl)oxy)-quinazolin-7-yl)benzo[d]-thiazol-2-amine]
 |  | < 500 | < 500 | Nc1nc2c(-c3c(Cl)cc4c(N5CC6CCC(C5)O6)nc(OC[C@@]56CCCN5C[C@H](F)C6)nc4c3F)ccc(F)c2s1 [Compound 454, 4-(4-(8-oxa-3-azabicyclo-[3.2.1]octan-3-yl)-6-chloro-8-fluoro-2-(((2R,7aS)-2-fluorotetrahydro-1H-pyrrolizin-7a(5H)-yl)meth-oxy)quinazolin-7-yl)-7-fluorobenzo[d]thiazol-2-amine]
 |  | > 500 | < 500 | Fc1c(-c2cccc3scc(Cl)c23)c(Cl)cc2c(N3CC4CCC(C3)N4)nc(OC[C@@]34CCCN3C[C@H](F)C4)nc12 [Compound 423, 4-(3,8-diazabicyclo[3.2.1]-octan-3-yl)-6-chloro-7-(3-chlorobenzo[b]thiophen-4-yl)-8-fluoro-2-(((2R,7aS)-2-fluorotetrahydro-1H-pyrrolizin-7a(5H)-yl)meth-oxy)quinazoline]
< 500 | < 500 |  |  | Nc1nc2c(-c3c(Cl)cc4c(N5CCCOCC5)nc(OC[C@@]56CCCN5C[C@H](F)C6)nc4c3F)ccc(F)c2s1 [Compound 154, 4-(6-chloro-8-fluoro-2-(((2R,7aS)-2-fluorotetra-hydro-1H-pyrrolizin-7a(5H)-yl)methoxy)-4-(1,4-oxazepan-4-yl)quin-azolin-7-yl)-7-fluoro-benzo[d]-thiazol-2-amine]
> 500 | > 500 |  |  | CN1CCC[C@H]1COc1nc(N2CCNCC(F)(F)C2)c2cc(Cl)c(-c3cccc4cccc(Cl)c34)c(F)c2n1 [Compound 170, 6-chloro-7-(8-chloronaph-thalen-1-yl)-4-(6,6-difluoro-1,4-diazepan-1-yl)-8-fluoro-2-(((S)-1-methylpyrrolidin-2-yl)methoxy)quinazoline]
 |  | < 500 | > 500 | Nc1nc2c(-c3c(Cl)cc4c(N5CC6CCNCC6C5)nc(OC[C@@]56CCCN5C[C@H](F)C6)nc4c3F)ccc(F)c2s1 (stereo partly drawn) [Compound 566, 4-(6-chloro-8-fluoro-2-(((2R,7aS)-2-fluorotetra-hydro-1H-pyrrolizin-7a(5H)-yl)methoxy)-4-(octahydro-2H-pyrrolo[3,4-c]pyridin-2-yl)quinazolin-7-yl)-7-fluoro-benzo[d]thiazol-2-amine]
 |  | > 500 | < 500 | Nc1nc2c(-c3c(Cl)cc4c(N5CC6CCC(C5)N6)nc(OCCCN5CCCC5)nc4c3F)ccc(F)c2s1 [Compound 457, 4-(4-(3,8-diazabicyclo-[3.2.1]octan-3-yl)-6-chloro-8-fluoro-2-(3-(pyrrolidin-1-yl)propoxy)quinazolin-7-yl)-7-fluorobenzo[d]thiazol-2-amine]
 |  | < 500 | > 500 | Nc1nc2c(-c3c(Cl)cc4c(N5CC6CCC(C5)N6)nc(OC[C@@]56CCCN5C[C@H](F)C6)nc4c3F)cccc2o1 [Compound 588, 4-(4-(3,8-diazabicyclo-[3.2.1]-octan-3-yl)-6-chloro-8-fluoro-2-(((2R,7aS)-2-fluorotetrahydro-1H-pyrrol-izin-7a(5H)-yl)methoxy)-quinazolin-7-yl)benzo[d]-oxazol-2-amine]
> 500 | > 500 |  |  | CN1CCC[C@H]1COc1nc(N2CC3CCNC3C2)c2cc(Cl)c(-c3cccc4sc(N)nc34)c(F)c2n1 (stereo partly drawn) [Compound 124, 4-(6-chloro-8-fluoro-4-(hexahydropyrrolo[3,4-b]-pyrrol-5(1H)-yl)-2-(((S)-1-methylpyrrolidin-2-yl)meth-oxy)quinazolin-7-yl)benzo-[d]thiazol-2-amine]
 |  | < 500 | < 500 | Nc1nc2c(-c3c(Cl)cc4c(N5CC6CCC(C5)N6)nc(OCC5(CN6CC[C@H](F)C6)CC5)nc4c3F)ccc(F)c2s1 [Compound 443, 4-(4-(3,8-diazabicyclo-[3.2.1]octan-3-yl)-6-chloro-8-fluoro-2-((1-(((S)-3-fluoropyrrolidin-1-yl)meth-yl)cyclopropyl)methoxy)-quinazolin-7-yl)-7-fluoro-benzo[d]thiazol-2-amine]
 |  | < 500 | < 500 | CN1CCC[C@H]1COc1nc(N2CCCC(F)C(F)(F)C2)c2cc(Cl)c(-c3cccc4sc(N)nc34)c(F)c2n1 (stereo partly drawn) [Compound 459, 4-(6-chloro-8-fluoro-2-(((S)-1-methylpyrrolidin-2-yl)-methoxy)-4-(3,3,4-trifluoro-azepan-1-yl)quinazolin-7-yl)benzo[d]thiazol-2-amine]
 |  | < 500 | < 500 | N#CCCc1cc2c(N3CC4CCC(C3)N4)nc(OC[C@@]34CCCN3C[C@H](F)C4)nc2c(F)c1-c1ccc(F)c2sc(N)nc12 [Compound 496, 3-(7-(2-amino-7-fluoroben-zo[d]thiazol-4-yl)-4-(3,8-diazabicyclo[3.2.1]octan-3-yl)-8-fluoro-2-(((2R,7aS)-2-fluorotetrahydro-1H-pyrrol-izin-7a(5H)-yl)methoxy)-quinazolin-6-yl)propane-nitrile]
 |  | < 500 | < 500 | CN1CCC[C@H]1COc1nc(N2CCCC(C(N)=O)CC2)c2cc(Cl)c(-c3cccc4sc(N)nc34)c(F)c2n1 (stereo partly drawn) [Compound 427, 1-(7-(2-aminobenzo[d]-thiazol-4-yl)-6-chloro-8-fluoro-2-(((S)-1-methylpyr-rolidin-2-yl)methoxy)quin-azolin-4-yl)azepane-4-carboxamide]
